{
  "source": "patent US20260133203A1",
  "about": "“DETECTION OF FUMARATE-DERIVED MODIFICATION IN A TEST SAMPLE” (UNIVERSITY OF SOUTH CAROLINA, priority 2017, published 2026)",
  "key": {"[1]": {"system": "N1E-115 neuroblastoma cells differentiated to a neuronal phenotype", "test": "Western blot detection of succinated proteins with anti-2SC antibody after KOH hydrolysis of the ester", "format": "cell-based, mouse", "details": "DMF for 24 hours, hydrolysis of the ester in the presence of KOH", "procedure": "N1E-115 cells (subclone N1E-115-1 neuroblastoma cells) were obtained from Sigma (08062511, St. Louis, MO). The cells were grown and expanded in non-differentiation medium (NDM): 90% DMEM (Gibco™, Grand Island, NY) with 25 mM glucose, no pyruvate, 25 mM HEPES, 4 mM glutamine and 10% fetal bovine serum (FBS, Atlanta Biologicals, Atlanta, GA). At 80% confluence, the cells were differentiated into neurons in the presence of 2% FBS and 1.25% dimethyl sulfoxide in DMEM for 5 days. In addition to the assessment of the neuronal phenotype by light microscopy, the detection of synaptophysin protein levels was used to confirm successful differentiation. During the final 6 or 24 hours of differentiation, the cells were treated with 10-100 µM DMF and harvested as described above for primary neurons, with the addition of phosphatase inhibitors to the DPBS washes and the RIPA buffer used for scraping to prevent dephosphorylation of CRMP-2. […] To ensure that the succinated proteins detected were solely of neuronal origin, N1E-115 neuroblastoma cells were differentiated to a neuronal phenotype (confirmed by increased synaptophysin content) and treated with DMF for 24 hours. […]"}, "primary rat astrocytes": {"system": "primary rat astrocytes", "test": "LC-MS/MS identification of succinated proteins in primary rat astrocytes", "format": "cell-based", "details": "24 hours treatment with up to 100 μM DMF", "procedure": "Primary astrocytes were isolated and cultured from neonatal P1-P2 Sprague-Dawley rats. Animals were decapitated following which cortices, brainstem, and hippocampi were aseptically dissected in petri dishes filled with ice-cold Hanks' Balanced Salt Solution (Corning® HBSS; Sigma, St. Louis, MO), HEPES (10 mM; Sigma), and gentamicin sulfate (5 μg/mL; Life Technologies, Carlsbad, CA). The dissected tissue was cut into pieces and dissociated by trypsin treatment (10 μl/mL; Life Technologies, Carlsbad, CA), followed by trituration with sterile glass pipettes. Cells were plated in 24-well plates pre-coated with poly-l-lysine (50 μg/mL; Sigma). Cultures were maintained in DMEM/F12 (Life Technologies) medium supplemented with 10% fetal bovine serum (FBS) and stored in an incubator at 37° C. ([…]). […] After gel extraction, the peptides were re-suspended in 1% acetic acid and analyzed on a DionexTM […] system (Thermo ScientificTM, Rockford, IL) coupled to an Orbitrap Velos ProTM mass spectrometer (Thermo ScientificTM, Rockford, IL). […] The data-dependent acquisition (DDA) data were analyzed using Proteome DiscovererTM 1.4 software with SEQUEST search engine against the uniprot_ref_mouse database (2014-10-03 version, 52,474 proteins) or uniprot_ref_rat database (2011-5-11 version, 39765 proteins) with Xcorr>1 validation (+2) and an allowance for 2 missed cleavages. […]"}},
  "note": "Where a name gives a salt, the structure may show the parent alone.",
  "data": [
    {"smiles": "COC(=O)/C=C/C(=O)OC", "note": "[DMF, dimethyl fumarate]", "values": [
      {"measurement": "detection of succinated proteins using the anti-2SC antibody", "setting": "[1]", "value": "detection of a large number of succinated proteins"},
      {"measurement": "number of succinated protein subunits detected", "setting": "primary rat astrocytes", "value": 11}
    ]}
  ]
}
